This note sets out measurements from patent publication US20240018123A1, “COMPOUND FOR INHIBITING OR DISINTEGRATING ANDROGEN RECEPTOR, AND PHARMACEUTICAL USE THEREOF” (KOREA RESEARCH INSTITUTE OF CHEMICAL TECHNOLOGY, priority 2020, published 2024).

The test deals with T1, Androgen receptor (AR) (Homo sapiens, UniProt P10275, T878A).
T1 construct: 5.5×10^5 LNCap cells were injected into each well of a 6-well plate; endogenous in cells; host or cells: LNCaP
T1 sequence (P10275 1-920 T878A): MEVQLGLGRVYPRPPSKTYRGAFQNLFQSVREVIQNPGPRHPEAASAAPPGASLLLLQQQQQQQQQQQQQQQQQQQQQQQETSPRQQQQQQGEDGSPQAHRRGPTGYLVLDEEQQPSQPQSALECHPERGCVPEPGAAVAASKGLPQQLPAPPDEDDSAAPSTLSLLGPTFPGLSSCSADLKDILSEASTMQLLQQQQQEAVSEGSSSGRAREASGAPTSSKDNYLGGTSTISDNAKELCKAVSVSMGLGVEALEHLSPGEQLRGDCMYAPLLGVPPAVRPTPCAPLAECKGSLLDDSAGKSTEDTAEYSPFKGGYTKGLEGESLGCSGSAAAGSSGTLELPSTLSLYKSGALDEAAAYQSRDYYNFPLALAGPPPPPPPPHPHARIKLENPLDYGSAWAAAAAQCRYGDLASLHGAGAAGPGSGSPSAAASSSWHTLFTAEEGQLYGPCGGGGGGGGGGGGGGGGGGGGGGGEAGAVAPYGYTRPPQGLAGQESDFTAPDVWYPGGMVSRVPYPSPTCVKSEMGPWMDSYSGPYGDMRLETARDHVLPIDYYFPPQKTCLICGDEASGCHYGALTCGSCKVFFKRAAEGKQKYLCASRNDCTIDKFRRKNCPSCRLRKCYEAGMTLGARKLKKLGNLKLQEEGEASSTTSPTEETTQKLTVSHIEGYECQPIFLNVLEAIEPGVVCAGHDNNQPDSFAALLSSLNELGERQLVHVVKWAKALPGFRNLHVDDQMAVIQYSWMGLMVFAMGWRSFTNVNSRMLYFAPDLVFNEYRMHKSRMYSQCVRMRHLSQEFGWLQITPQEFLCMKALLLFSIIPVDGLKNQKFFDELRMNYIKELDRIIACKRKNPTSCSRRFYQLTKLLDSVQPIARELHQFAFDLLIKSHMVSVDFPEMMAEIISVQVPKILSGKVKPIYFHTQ
Briefly: Assessment of AR proteolytic activity (Western blotting of LNCap cell lysates). To be noted: 24 hours of treatment, Western blotting quantified with Image J. Type of test: cell-based. The method, then: Assessment of AR Proteolytic Activity
Androgen receptor (AR) proteolytic activity of the compound according to the present invention was evaluated as follows: Specifically, 5.5×10^5 LNCap cells were injected into each well of a 6-well plate. […] After 24 hours of treatment, cells were collected and lysed using RIPA Lysis buffer (50 mM Tris-HCl, pH7.5, 150 mM NaCl, 1% Triton X-100, 2 mM EDTA, 0.1% SDS, 0.5% sodium deoxycholate and protease inhibitor cocktail) to make cell lysates. Western blotting was performed, and the results were quantified using Image J program.
In general terms: In western blotting, separated proteins are transferred to a membrane and probed.

Regarding `CC1(C)C(NC(=O)c2ccc(N3CCC(CCN4CCN(c5ccc6c(=O)n(C7CCC(=O)NC7=O)nnc6c5)CC4)CC3)nc2)C(C)(C)C1Oc1ccc(C#N)c(Cl)c1` (centres unmarked) [Example 197, N-((1r,3r)-3-(3-chloro-4-cyanophenoxy)-2,2,4,4-tetramethylcyclobutyl)-6-(4-(2-(4-(3-(2,6-dioxopiperidin-3-yl)-4-oxo-3,4-dihydrobenzo[d][1,2,3]triazin-7-yl)piperazin-1-yl)ethyl)piperidin-1-yl)nicotinamide], the “Degradation (1 μM treated in LNCaP, % AR remaining)” value was 16%. The result for `CC1(C)C(NC(=O)c2ccc(N3CCC(CN4CC5(CCN(c6ccc7nnn(C8CCC(=O)NC8=O)c(=O)c7c6)CC5)C4)CC3)nc2)C(C)(C)C1Oc1ccc(C#N)c(Cl)c1` (centres unmarked) [Example 170, N-((1r,3r)-3-(3-chloro-4-cyanophenoxy)-2,2,4,4-tetramethylcyclobutyl)-6-(4-((7-(3-(2,6-dioxopiperidin-3-yl)-4-oxo-3,4-dihydrobenzo[d][1,2,3]triazin-6-yl)-2,7-diazaspiro[3.5]nonan-2-yl)methyl)piperidin-1-yl)nicotinamide] reads 16%; that for `CC1(C)C(NC(=O)c2ccc(C#CCN3CCN(c4ccc5nnn(C6CCC(=O)NC6=O)c(=O)c5c4)CC3)nc2)C(C)(C)C1Oc1ccc(C#N)c(Cl)c1` (centres unmarked) [Example 178, N-((1r,3r)-3-(3-chloro-4-cyanophenoxy)-2,2,4,4-tetramethylcyclobutyl)-6-(3-(4-(3-(2,6-dioxopiperidin-3-yl)-4-oxo-3,4-dihydrobenzo[d][1,2,3]triazin-6-yl)piperazin-1-yl)prop-1-yn-1-yl)nicotinamide], 23%. Next, `CC1(C)C(NC(=O)c2ccc(C#CCN3CCN(c4ccc5c(=O)n(C6CCC(=O)NC6=O)nnc5c4)CC3)nc2)C(C)(C)C1Oc1ccc(C#N)c(Cl)c1` (centres unmarked) [Example 177, N-((1r,3r)-3-(3-chloro-4-cyanophenoxy)-2,2,4,4-tetramethylcyclobutyl)-6-(3-(4-(3-(2,6-dioxopiperidin-3-yl)-4-oxo-3,4-dihydrobenzo[d][1,2,3]triazin-7-yl)piperazin-1-yl)prop-1-yn-1-yl)nicotinamide]: 56%; `CC1(C)C(NC(=O)c2ccc(C#CCN3CC4(CCN(c5ccc6c(=O)n(C7CCC(=O)NC7=O)nnc6c5)CC4)C3)nc2)C(C)(C)C1Oc1ccc(C#N)c(Cl)c1` (centres unmarked) [Example 179, N-((1r,3r)-3-(3-chloro-4-cyanophenoxy)-2,2,4,4-tetramethylcyclobutyl)-6-(3-(7-(3-(2,6-dioxopiperidin-3-yl)-4-oxo-3,4-dihydrobenzo[d][1,2,3]triazin-7-yl)-2,7-diazaspiro[3.5]nonan-2-yl)prop-1-yn-1-yl)nicotinamide]: 8%; `CC1(C)[C@H](NC(=O)c2ccc(N3CCC(CN4CCC5(CC4)CN(c4ccc6nnn(C7CCC(=O)NC7=O)c(=O)c6c4)C5)CC3)nc2)C(C)(C)[C@H]1Oc1ccc(C#N)c(Cl)c1` (some centres unmarked) [Example 172, N-((1r,3r)-3-(3-chloro-4-cyanophenoxy)-2,2,4,4-tetramethylcyclobutyl)-6-(4-((2-(3-(2,6-dioxopiperidin-3-yl)-4-oxo-3,4-dihydrobenzo[d][1,2,3]triazin-6-yl)-2,7-diazaspiro[3.5]nonan-7-yl)methyl)piperidin-1-yl)nicotinamide]: 7%. With `CC1(C)[C@H](NC(=O)c2ccc(C#CC3CCN(CC4CCN(c5ccc6c(=O)n(C7CCC(=O)NC7=O)nnc6c5)CC4)CC3)nc2)C(C)(C)[C@H]1Oc1ccc(C#N)c(Cl)c1` (some centres unmarked) [Example 195, N-((1r,3r)-3-(3-chloro-4-cyanophenoxy)-2,2,4,4-tetramethylcyclobutyl)-6-((1-((1-(3-(2,6-dioxopiperidin-3-yl)-4-oxo-3,4-dihydrobenzo[d][1,2,3]triazin-7-yl)piperidin-4-yl)methyl)piperidin-4-yl)ethynyl)nicotinamide], the “Degradation (1 μM treated in LNCaP, % AR remaining)” value turned out to be 3%. Next, `CC1(C)C(NC(=O)c2ccc(N3CC[C@H](CN4CC5(CCN(c6ccc7nnn(C8CCC(=O)NC8=O)c(=O)c7c6)CC5)C4)C3)nc2)C(C)(C)C1Oc1ccc(C#N)c(Cl)c1` (stereo partly drawn) [Example 186, N-((1r,3R)-3-(3-chloro-4-cyanophenoxy)-2,2,4,4-tetramethylcyclobutyl)-6-((3R)-3-((7-(3-(2,6-dioxopiperidin-3-yl)-4-oxo-3,4-dihydrobenzo[d][1,2,3]triazin-6-yl)-2,7-diazaspiro[3.5]nonan-2-yl)methyl)pyrrolidin-1-yl)nicotinamide]: 11%; `CC1(C)C(NC(=O)c2ccc(N3CCN(CCCCCOc4ccc5nnn(C6CCC(=O)NC6=O)c(=O)c5c4)CC3)nc2)C(C)(C)C1Oc1ccc(C#N)c(Cl)c1` (centres unmarked) [Example 163, N-((1r,3r)-3-(3-chloro-4-cyanophenoxy)-2,2,4,4-tetramethylcyclobutyl)-6-(4-(5-((3-(2,6-dioxopiperidin-3-yl)-4-oxo-3,4-dihydrobenzo[d][1,2,3]triazin-6-yl)oxy)pentyl)piperazin-1-yl)nicotinamide]: 10%. Regarding `CC1(C)C(NC(=O)c2ccc(C#CC3CCN(CC4CN(c5ccc6nnn(C7CCC(=O)NC7=O)c(=O)c6c5)C4)CC3)nc2)C(C)(C)C1Oc1ccc(C#N)c(Cl)c1` (centres unmarked) [Example 184, N-((1r,3r)-3-(3-chloro-4-cyanophenoxy)-2,2,4,4-tetramethylcyclobutyl)-6-((1-((1-(3-(2,6-dioxopiperidin-3-yl)-4-oxo-3,4-dihydrobenzo[d][1,2,3]triazin-6-yl)azetidin-3-yl)methyl)piperidin-4-yl)ethynyl)nicotinamide], the “Degradation (1 μM treated in LNCaP, % AR remaining)” value is listed as 11%. For the compound `CC1(C)[C@H](NC(=O)c2ccc(N3CCC(CN4CCC5(CC4)CN(c4ccc6c(=O)n(C7CCC(=O)NC7=O)nnc6c4)C5)CC3)nc2)C(C)(C)[C@H]1Oc1ccc(C#N)c(Cl)c1` (some centres unmarked) [Example 171, N-((1r,3r)-3-(3-chloro-4-cyanophenoxy)-2,2,4,4-tetramethylcyclobutyl)-6-(4-((2-(3-(2,6-dioxopiperidin-3-yl)-4-oxo-3,4-dihydrobenzo[d][1,2,3]triazin-7-yl)-2,7-diazaspiro[3.5]nonan-7-yl)methyl)piperidin-1-yl)nicotinamide], the “Degradation (1 μM treated in LNCaP, % AR remaining)” value is listed as 11%.

In the case of `CC1(C)C(NC(=O)c2ccc(N3CC[C@@H](CN4CC5(CCN(c6ccc7c(=O)n(C8CCC(=O)NC8=O)nnc7c6)CC5)C4)C3)nc2)C(C)(C)C1Oc1ccc(C#N)c(Cl)c1` (stereo partly drawn) [Example 187, N-((1r,3S)-3-(3-chloro-4-cyanophenoxy)-2,2,4,4-tetramethylcyclobutyl)-6-((3S)-3-((7-(3-(2,6-dioxopiperidin-3-yl)-4-oxo-3,4-dihydrobenzo[d][1,2,3]triazin-7-yl)-2,7-diazaspiro[3.5]nonan-2-yl)methyl)pyrrolidin-1-yl)nicotinamide], the “Degradation (1 μM treated in LNCaP, % AR remaining)” value was determined as 27%. With `CC1(C)C(NC(=O)c2ccc(N3CC[C@H](CN4CCN(C5CCN(c6ccc7c(=O)n(C8CCC(=O)NC8=O)nnc7c6)CC5)CC4)C3)nc2)C(C)(C)C1Oc1ccc(C#N)c(Cl)c1` (stereo partly drawn) [Example 191, N-((1r,3R)-3-(3-chloro-4-cyanophenoxy)-2,2,4,4-tetramethylcyclobutyl)-6-((3R)-3-((4-(1-(3-(2,6-dioxopiperidin-3-yl)-4-oxo-3,4-dihydrobenzo[d][1,2,3]triazin-7-yl)piperidin-4-yl)piperazin-1-yl)methyl)pyrrolidin-1-yl)nicotinamide], the “Degradation (1 μM treated in LNCaP, % AR remaining)” value is 33%. The result for `N#Cc1ccc(O[C@H]2CC[C@@H](NC(=O)c3ccc(N4CCC(CN5CC6(CCN(c7ccc8c(=O)n(C9CCC(=O)NC9=O)nnc8c7)CC6)C5)CC4)nc3)CC2)cc1Cl` (some centres unmarked) [Example 167, N-((1r,4r)-4-(3-chloro-4-cyanophenoxy)cyclohexyl)-6-(4-((7-(3-(2,6-dioxopiperidin-3-yl)-4-oxo-3,4-dihydrobenzo[d][1,2,3]triazin-7-yl)-2,7-diazaspiro[3.5]nonan-2-yl)methyl)piperidin-1-yl)nicotinamide] reads 19%.
